Laboratory results from ChEMBL document CHEMBL1147515, “Nickel(II) and cobalt(II) complexes of hydroxyl-substituted triazamacrocyclic ligand as potential antitumor agents” (2004).

What was measured:
Bel-7402 [1] = assay: Percentage of growth inhibition of BEL-7402 cells treated for 48 hr at 10E-3 M/L and incubated with 5 g/L MTT for 4 h.; assay type: functional; settings: for inhibition: Homo sapiens
Bel-7402 [2] = assay: Percentage of growth inhibition of BEL-7402 cells treated for 48 hr at 10E-4 M/L and incubated with 5 g/L MTT for 4 h.; assay type: functional; settings: for inhibition: Homo sapiens
Bel-7402 [3] = assay: Percentage of growth inhibition of BEL-7402 cells treated for 48 hr at 10E-5 M/L and incubated with 5 g/L MTT for 4 h.; assay type: functional, cell-based; settings: Homo sapiens
HXO-RB44 cell line [4] = assay: Percentage of growth inhibition of HXO-RB44 cells treated for 48 hr at 10E-4 M/L and incubated with 5 g/L MTT for 4 h.; assay type: functional; settings: for inhibition: Homo sapiens
HXO-RB44 cell line [5] = assay: Percentage of growth inhibition of HXO-RB44 cells treated for 48 hr at 10E-5 M/L and incubated with 5 g/L MTT for 4 h.; assay type: functional; settings: for inhibition: Homo sapiens
HXO-RB44 cell line [6] = assay: Percentage of growth inhibition of HXO-RB44 cells treated for 48 hr at 10E-6 M/L and incubated with 5 g/L MTT for 4 h.; assay type: functional; settings: for inhibition: Homo sapiens

COPPER
inhibition (Bel-7402 [1]): 81% | inhibition (Bel-7402 [2]): 3% | inhibition (Bel-7402 [3]): 2% | inhibition (HXO-RB44 cell line [4]): 5% | inhibition (HXO-RB44 cell line [5]): 3% | inhibition (HXO-RB44 cell line [6]): 0%

COBALT (II) ION
inhibition (Bel-7402 [1]): 79% | inhibition (Bel-7402 [2]): 5% | inhibition (Bel-7402 [3]): 0% | inhibition (HXO-RB44 cell line [4]): 7% | inhibition (HXO-RB44 cell line [5]): 3% | inhibition (HXO-RB44 cell line [6]): 3%

OC1CNCCNCCNC1
Inhibition (Bel-7402 [1]): 34% | Inhibition (Bel-7402 [2]): 16% | Inhibition (HXO-RB44 cell line [4]): 3% | Inhibition (HXO-RB44 cell line [5]): 3% | Inhibition (HXO-RB44 cell line [6]): 1%
